Results published in ChEMBL document CHEMBL4507293 (2021).

Tests used:
[1] = biological target: Cyclin-dependent kinase 13 (Homo sapiens) (UniProt Q14004); conditions: Compound concentration 100.0 nM
[2] = biological target: Serine/threonine-protein kinase SIK1 (Homo sapiens) (UniProt P57059); conditions: Compound concentration 100.0 nM
[3] = biological target: Mitogen-activated protein kinase kinase kinase kinase 3 (Homo sapiens) (UniProt Q8IVH8); conditions: Compound concentration 100.0 nM
[4] = test system: Receptor-type tyrosine-protein kinase FLT3 (Homo sapiens), P36888 [D835H]; conditions: Compound concentration 100.0 nM
[5] = biological target: Vascular endothelial growth factor receptor 1 (Homo sapiens) (UniProt P17948); conditions: Compound concentration 100.0 nM
[6] = test system: Tyrosine-protein kinase ABL1 (Homo sapiens), P00519 [Y253F]; conditions: Compound concentration 100.0 nM
[7] = biological target: Tyrosine-protein kinase Tec (Homo sapiens) (UniProt P42680); conditions: Compound concentration 100.0 nM
[8] = biological target: Cyclin-dependent kinase 11A (Homo sapiens) (UniProt Q9UQ88); conditions: Compound concentration 100.0 nM
[9] = biological target: Casein kinase I isoform gamma-1 (Homo sapiens) (UniProt Q9HCP0); conditions: Compound concentration 100.0 nM
[10] = biological target: Serine/threonine-protein kinase pim-2 (Homo sapiens) (UniProt Q9P1W9); conditions: Compound concentration 100.0 nM
[11] = biological target: Mitogen-activated protein kinase kinase kinase 7 (Homo sapiens) (UniProt O43318); conditions: Compound concentration 100.0 nM
[12] = biological target: Myosin light chain kinase (Homo sapiens) (UniProt Q32MK0); conditions: Compound concentration 100.0 nM
[13] = biological target: Dual specificity mitogen-activated protein kinase kinase 6 (Homo sapiens) (UniProt P52564); conditions: Compound concentration 100.0 nM
[14] = biological target: Homeodomain-interacting protein kinase 1 (Homo sapiens) (UniProt Q86Z02); conditions: Compound concentration 100.0 nM
[15] = biological target: Serine/threonine-protein kinase tousled-like 1 (Homo sapiens) (UniProt Q9UKI8); conditions: Compound concentration 100.0 nM
[16] = biological target: Ribosomal protein S6 kinase alpha-1 (Homo sapiens) (UniProt Q15418); conditions: Compound concentration 100.0 nM
[17] = biological target: Calcium/calmodulin-dependent protein kinase type 1G (Homo sapiens) (UniProt Q96NX5); conditions: Compound concentration 100.0 nM
[18] = biological target: Casein kinase I isoform alpha (Homo sapiens) (UniProt P48729); conditions: Compound concentration 100.0 nM
[19] = biological target: Mitogen-activated protein kinase 1 (Homo sapiens) (UniProt P28482); conditions: Compound concentration 100.0 nM
[20] = biological target: T1, Muscarinic acetylcholine receptor M2 (Homo sapiens) (UniProt P08172); conditions: Compound concentration 10.0 uM
T1 sequence (whole entry): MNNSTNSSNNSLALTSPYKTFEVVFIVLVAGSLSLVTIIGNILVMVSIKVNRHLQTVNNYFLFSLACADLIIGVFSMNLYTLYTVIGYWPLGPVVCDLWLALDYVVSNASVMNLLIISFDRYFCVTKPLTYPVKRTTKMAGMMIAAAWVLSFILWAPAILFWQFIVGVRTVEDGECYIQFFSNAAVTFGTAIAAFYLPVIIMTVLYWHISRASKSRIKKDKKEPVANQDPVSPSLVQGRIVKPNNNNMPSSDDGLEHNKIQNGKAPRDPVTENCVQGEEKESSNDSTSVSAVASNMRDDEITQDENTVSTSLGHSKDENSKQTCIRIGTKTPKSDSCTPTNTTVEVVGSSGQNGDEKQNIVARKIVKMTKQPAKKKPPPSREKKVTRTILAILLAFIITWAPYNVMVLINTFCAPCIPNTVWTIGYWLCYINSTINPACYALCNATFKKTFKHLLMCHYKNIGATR

[21] = biological target: Tyrosine-protein kinase Yes (Homo sapiens) (UniProt P07947); conditions: Compound concentration 100.0 nM
[22] = biological target: Interferon-induced, double-stranded RNA-activated protein kinase (Homo sapiens) (UniProt P19525); conditions: Compound concentration 100.0 nM
[23] = biological target: Serine/threonine-protein kinase 32A (Homo sapiens) (UniProt Q8WU08); conditions: Compound concentration 100.0 nM
[24] = biological target: Beta-1 adrenergic receptor (Homo sapiens) (UniProt P08588); conditions: Compound concentration 10.0 uM
[25] = biological target: Serine/threonine-protein kinase 25 (Homo sapiens) (UniProt O00506); conditions: Compound concentration 100.0 nM
[26] = biological target: Receptor-interacting serine/threonine-protein kinase 1 (Homo sapiens) (UniProt Q13546); conditions: Compound concentration 100.0 nM
[27] = test system: Phosphatidylinositol 4,5-bisphosphate 3-kinase catalytic subunit alpha isoform (Homo sapiens), P42336 [E545K]; conditions: Compound concentration 100.0 nM
[28] = biological target: Mitogen-activated protein kinase kinase kinase kinase 2 (Homo sapiens) (UniProt Q12851); conditions: Compound concentration 100.0 nM
[29] = biological target: Rho-associated protein kinase 2 (Homo sapiens) (UniProt O75116); conditions: Compound concentration 100.0 nM
[30] = biological target: Serine/threonine-protein kinase SIK2 (Homo sapiens) (UniProt Q9H0K1); conditions: Compound concentration 100.0 nM
[31] = biological target: Serine/threonine-protein kinase TBK1 (Homo sapiens) (UniProt Q9UHD2); conditions: Compound concentration 100.0 nM
[32] = biological target: Mast/stem cell growth factor receptor Kit (Homo sapiens) (UniProt P10721); conditions: Compound concentration 100.0 nM
[33] = biological target: Tyrosine-protein kinase JAK1 (Homo sapiens) (UniProt P23458); conditions: Compound concentration 100.0 nM
[34] = test system: Phosphatidylinositol 4,5-bisphosphate 3-kinase catalytic subunit alpha isoform (Homo sapiens), P42336 [I800L]; conditions: Compound concentration 100.0 nM
[35] = test system: Receptor-type tyrosine-protein kinase FLT3 (Homo sapiens), P36888 [UNDEFINED MUTATION]; conditions: Compound concentration 100.0 nM
[36] = biological target: Serine/threonine-protein kinase D1 (Homo sapiens) (UniProt Q15139); conditions: Compound concentration 100.0 nM
[37] = biological target: Epithelial discoidin domain-containing receptor 1 (Homo sapiens) (UniProt Q08345); conditions: Compound concentration 100.0 nM
[38] = biological target: Macrophage colony-stimulating factor 1 receptor (Homo sapiens) (UniProt P07333); conditions: Compound concentration 100.0 nM

Vascular endothelial growth factor receptor 1 (Homo sapiens), sequence (P17948 whole entry): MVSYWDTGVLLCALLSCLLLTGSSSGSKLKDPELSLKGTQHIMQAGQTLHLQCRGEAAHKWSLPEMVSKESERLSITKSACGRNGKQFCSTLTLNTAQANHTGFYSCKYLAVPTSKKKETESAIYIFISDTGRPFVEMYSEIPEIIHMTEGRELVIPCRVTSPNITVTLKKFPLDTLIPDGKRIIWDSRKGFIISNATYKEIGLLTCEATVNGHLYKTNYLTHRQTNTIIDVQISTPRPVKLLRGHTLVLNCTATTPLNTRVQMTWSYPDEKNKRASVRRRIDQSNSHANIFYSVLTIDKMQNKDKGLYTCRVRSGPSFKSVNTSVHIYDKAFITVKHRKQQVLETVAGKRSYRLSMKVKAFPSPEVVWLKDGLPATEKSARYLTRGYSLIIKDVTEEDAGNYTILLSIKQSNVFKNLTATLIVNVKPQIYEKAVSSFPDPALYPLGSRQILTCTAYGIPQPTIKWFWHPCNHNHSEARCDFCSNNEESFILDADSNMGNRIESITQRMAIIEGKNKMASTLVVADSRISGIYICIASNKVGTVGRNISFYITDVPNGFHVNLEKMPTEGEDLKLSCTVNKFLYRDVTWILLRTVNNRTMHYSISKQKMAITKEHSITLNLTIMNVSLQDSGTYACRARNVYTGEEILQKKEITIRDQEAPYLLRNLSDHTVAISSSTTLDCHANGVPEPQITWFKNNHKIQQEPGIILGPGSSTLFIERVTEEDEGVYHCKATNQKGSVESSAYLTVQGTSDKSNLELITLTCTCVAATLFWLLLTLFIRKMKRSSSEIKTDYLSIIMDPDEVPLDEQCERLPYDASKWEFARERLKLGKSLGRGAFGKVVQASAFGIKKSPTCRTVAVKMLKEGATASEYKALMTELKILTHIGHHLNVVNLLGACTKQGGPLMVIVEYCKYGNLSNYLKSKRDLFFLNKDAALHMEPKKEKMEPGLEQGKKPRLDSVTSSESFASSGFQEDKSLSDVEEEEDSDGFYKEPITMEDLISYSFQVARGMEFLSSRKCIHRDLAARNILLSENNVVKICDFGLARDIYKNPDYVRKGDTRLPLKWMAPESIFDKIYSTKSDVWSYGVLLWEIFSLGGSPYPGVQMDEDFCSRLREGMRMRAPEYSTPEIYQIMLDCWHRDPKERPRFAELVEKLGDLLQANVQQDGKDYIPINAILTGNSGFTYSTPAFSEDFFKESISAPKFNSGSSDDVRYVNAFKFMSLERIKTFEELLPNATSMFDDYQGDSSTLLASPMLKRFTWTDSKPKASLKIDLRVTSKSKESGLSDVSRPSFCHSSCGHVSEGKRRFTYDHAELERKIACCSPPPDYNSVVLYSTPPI
Tyrosine-protein kinase Tec (Homo sapiens), sequence (P42680 whole entry): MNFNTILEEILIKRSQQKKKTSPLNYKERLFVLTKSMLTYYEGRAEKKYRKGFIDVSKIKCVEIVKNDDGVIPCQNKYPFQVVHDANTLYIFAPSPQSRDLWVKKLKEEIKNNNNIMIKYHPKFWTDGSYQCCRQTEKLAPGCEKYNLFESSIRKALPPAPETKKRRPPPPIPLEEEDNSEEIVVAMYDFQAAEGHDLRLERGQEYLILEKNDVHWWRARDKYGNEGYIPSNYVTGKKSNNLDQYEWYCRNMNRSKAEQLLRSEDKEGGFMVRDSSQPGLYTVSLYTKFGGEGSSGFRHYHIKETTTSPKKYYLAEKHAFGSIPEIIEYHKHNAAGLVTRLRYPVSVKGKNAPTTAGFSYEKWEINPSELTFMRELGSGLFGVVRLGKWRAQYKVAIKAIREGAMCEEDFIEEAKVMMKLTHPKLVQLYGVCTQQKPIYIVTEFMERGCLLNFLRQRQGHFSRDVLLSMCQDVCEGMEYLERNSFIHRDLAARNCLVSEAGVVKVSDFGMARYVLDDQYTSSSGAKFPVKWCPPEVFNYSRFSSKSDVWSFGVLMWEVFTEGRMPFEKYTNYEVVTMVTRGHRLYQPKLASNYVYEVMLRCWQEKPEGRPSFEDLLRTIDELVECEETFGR
Serine/threonine-protein kinase D1 (Homo sapiens), sequence (Q15139 whole entry, the tested form may be a part): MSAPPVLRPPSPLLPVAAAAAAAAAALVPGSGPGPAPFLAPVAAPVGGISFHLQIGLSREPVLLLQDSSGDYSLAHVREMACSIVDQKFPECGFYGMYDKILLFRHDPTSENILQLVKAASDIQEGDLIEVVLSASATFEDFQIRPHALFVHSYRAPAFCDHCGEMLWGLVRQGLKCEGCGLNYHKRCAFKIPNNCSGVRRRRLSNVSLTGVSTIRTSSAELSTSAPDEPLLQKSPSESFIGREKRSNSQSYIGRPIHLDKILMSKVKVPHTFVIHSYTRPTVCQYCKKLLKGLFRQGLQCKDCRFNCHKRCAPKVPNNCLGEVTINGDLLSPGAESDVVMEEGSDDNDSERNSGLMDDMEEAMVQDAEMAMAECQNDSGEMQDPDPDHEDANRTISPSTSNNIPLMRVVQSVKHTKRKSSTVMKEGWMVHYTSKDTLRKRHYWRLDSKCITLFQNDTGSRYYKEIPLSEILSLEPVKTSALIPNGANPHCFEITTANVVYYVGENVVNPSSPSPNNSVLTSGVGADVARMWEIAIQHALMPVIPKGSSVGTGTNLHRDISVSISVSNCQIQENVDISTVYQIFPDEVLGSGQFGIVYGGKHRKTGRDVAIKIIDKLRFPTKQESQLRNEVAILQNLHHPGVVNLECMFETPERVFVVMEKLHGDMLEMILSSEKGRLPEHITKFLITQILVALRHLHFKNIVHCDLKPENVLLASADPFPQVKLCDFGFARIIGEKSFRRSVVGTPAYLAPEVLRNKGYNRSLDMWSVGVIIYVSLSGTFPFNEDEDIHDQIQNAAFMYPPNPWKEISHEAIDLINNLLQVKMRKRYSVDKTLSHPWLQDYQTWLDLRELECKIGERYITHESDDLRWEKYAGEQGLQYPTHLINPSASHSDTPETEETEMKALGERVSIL
Casein kinase I isoform alpha (Homo sapiens), sequence (P48729 2-337 limits assumed): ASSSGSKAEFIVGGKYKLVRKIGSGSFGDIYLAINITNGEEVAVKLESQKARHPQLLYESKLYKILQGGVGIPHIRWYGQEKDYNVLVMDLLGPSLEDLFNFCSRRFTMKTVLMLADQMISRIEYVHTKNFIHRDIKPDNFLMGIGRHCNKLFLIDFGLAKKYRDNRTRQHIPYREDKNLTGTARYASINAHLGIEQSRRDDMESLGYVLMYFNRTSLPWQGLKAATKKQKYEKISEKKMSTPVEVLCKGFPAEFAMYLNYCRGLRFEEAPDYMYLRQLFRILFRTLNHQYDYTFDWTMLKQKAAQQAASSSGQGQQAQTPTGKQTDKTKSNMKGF
Serine/threonine-protein kinase 32A (Homo sapiens), sequence (Q8WU08 whole entry): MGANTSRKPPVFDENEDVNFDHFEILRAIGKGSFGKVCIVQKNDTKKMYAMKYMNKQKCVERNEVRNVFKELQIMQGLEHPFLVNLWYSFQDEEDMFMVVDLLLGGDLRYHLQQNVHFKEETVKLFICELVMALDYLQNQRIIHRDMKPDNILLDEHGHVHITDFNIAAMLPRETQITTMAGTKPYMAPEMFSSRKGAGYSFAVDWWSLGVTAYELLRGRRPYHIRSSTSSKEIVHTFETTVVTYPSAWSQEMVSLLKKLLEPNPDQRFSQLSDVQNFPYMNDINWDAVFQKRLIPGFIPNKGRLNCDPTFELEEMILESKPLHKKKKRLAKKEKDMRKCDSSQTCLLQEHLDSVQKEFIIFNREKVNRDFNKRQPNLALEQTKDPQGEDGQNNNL
Calcium/calmodulin-dependent protein kinase type 1G (Homo sapiens), sequence (Q96NX5 whole entry, canonical isoform): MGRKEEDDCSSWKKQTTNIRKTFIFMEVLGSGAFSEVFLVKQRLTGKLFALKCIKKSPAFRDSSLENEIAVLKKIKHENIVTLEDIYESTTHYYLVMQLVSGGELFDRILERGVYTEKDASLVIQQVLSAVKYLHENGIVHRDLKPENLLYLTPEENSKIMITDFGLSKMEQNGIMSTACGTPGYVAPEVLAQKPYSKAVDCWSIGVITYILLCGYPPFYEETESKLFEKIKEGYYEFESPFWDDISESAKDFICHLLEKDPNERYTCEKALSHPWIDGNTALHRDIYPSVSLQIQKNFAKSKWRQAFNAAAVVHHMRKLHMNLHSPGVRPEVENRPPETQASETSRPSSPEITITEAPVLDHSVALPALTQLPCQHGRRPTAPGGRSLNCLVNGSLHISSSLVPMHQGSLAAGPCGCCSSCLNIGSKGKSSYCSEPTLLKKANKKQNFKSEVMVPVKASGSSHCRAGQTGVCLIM
Myosin light chain kinase (Homo sapiens), sequence (Q32MK0 whole entry): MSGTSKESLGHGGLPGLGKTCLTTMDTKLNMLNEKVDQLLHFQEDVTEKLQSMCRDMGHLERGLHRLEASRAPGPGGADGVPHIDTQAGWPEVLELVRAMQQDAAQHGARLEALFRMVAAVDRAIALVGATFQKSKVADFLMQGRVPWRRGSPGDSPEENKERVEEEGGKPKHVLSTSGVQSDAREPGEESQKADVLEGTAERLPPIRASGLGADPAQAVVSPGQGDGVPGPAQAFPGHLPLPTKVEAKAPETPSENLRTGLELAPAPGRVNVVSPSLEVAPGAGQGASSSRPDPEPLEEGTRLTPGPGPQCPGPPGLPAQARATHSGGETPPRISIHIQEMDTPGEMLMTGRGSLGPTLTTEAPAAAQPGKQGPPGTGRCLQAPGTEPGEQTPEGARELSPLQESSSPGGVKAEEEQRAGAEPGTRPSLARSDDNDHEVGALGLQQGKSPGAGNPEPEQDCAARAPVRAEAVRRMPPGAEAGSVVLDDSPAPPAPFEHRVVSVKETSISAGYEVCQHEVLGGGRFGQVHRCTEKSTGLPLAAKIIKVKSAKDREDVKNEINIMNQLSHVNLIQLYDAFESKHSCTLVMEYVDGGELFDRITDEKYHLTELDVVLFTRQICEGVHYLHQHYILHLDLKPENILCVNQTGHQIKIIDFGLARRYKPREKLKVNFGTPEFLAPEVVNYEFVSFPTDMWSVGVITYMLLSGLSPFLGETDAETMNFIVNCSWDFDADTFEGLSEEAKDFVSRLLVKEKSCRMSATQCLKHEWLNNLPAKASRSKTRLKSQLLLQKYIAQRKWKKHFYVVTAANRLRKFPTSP

COCCOc1nc(-c2ccc(Cl)nc2)nc2c1CN(C(=O)c1ncn3ccccc13)CC2 [THPP-1]
inactive: residual activity [1] 100% | residual activity [2] 100% | residual activity [3] 100% | residual activity [4] 100% | residual activity [5] 87% | residual activity [6] 93% | residual activity [7] 100% | residual activity [8] 100% | residual activity [9] 100% | residual activity [10] 98% | residual activity [11] 93% | residual activity [12] 83% | residual activity [13] 100% | residual activity [14] 90% | residual activity [15] 100% | residual activity [16] 100% | residual activity [17] 100% | residual activity [18] 98% | residual activity [19] 95% | inhibition [20] 19.3% | residual activity [21] 100% | residual activity [22] 100% | residual activity [23] 83% | inhibition [24] 16.8% | residual activity [25] 100% | residual activity [26] 100% | residual activity [27] 71% | residual activity [28] 100% | residual activity [29] 76% | residual activity [30] 100% | residual activity [31] 68% | residual activity [32] 100% | residual activity [33] 76% | residual activity [34] 66% | residual activity [35] 100% | residual activity [36] 90% | residual activity [37] 100% | residual activity [38] 100%

CC(C)CC(=O)N1CCc2nc(-c3ccc(Br)cc3)nc(N(C)Cc3ccccc3)c2C1 [THPP-1-NC]
inactive: residual activity [1] 100% | residual activity [2] 91% | residual activity [3] 95% | residual activity [4] 100% | residual activity [5] 100% | residual activity [6] 97% | residual activity [7] 100% | residual activity [8] 100% | residual activity [9] 100% | residual activity [10] 100% | residual activity [11] 78% | residual activity [12] 98% | residual activity [13] 100% | residual activity [14] 64% | residual activity [15] 100% | residual activity [16] 100% | residual activity [17] 100% | residual activity [18] 73% | residual activity [19] 93% | inhibition [20] 18.2% | residual activity [21] 100% | residual activity [22] 100% | residual activity [23] 94% | inhibition [24] 29.5% | residual activity [25] 100% | residual activity [26] 100% | residual activity [27] 85% | residual activity [28] 100% | residual activity [29] 74% | residual activity [30] 100% | residual activity [31] 75% | residual activity [32] 100% | residual activity [33] 71% | residual activity [34] 98% | residual activity [35] 92% | residual activity [36] 87% | residual activity [37] 100% | residual activity [38] 100%
